Reference: patent publication US20240390362A1, “METHODS OF TREATING ERYTHROPOIETIC PROTOPORPHYRIA, X-LINKED PROTOPORPHYRIA, OR CONGENITAL ERYTHROPOIETIC PORPHYRIA WITH A SOLID FORM OF BITOPERTIN” (Disc Medicine, Inc., priority 2021, published 2024)

How the values were obtained:
Format in all cases: cell-based
K562 clone-9 cells = assay: Cell viability by Vi-CELL XR Complete System in EPP K562 model; conditions: 96 hours incubation
Experimental: 900 μL of K562 clone-9 cells at 2×10^5 cells/mL in IMDM media with 10% FBS and 1% PS were plated into a 24-well plate. After 24-hour incubation, 100 μL of compound in DMSO/media was added in different concentration. The final concentration of DMSO was 0.1%. The compound was incubated for 96 hours at 37° C. Cell viability and cell count were measured by Vi-CELL XR Complete System. Finally, the effect of the compound on PPIX level was determined by flow cytometry.

clone 1-9 cells = assay: LC/MS/MS of 5-ALA, PPIX and heme levels in the EPP K562 cellular model
[1] = system: human cord blood-CD34+ cells; assay: CD34+ cells transduced with FECH shRNA lentivirus, differentiated to erythroid cells; flow cytometry of PPIX and surface markers; conditions: 100 nM, 9 days differentiation
Experimental: To investigate the effects of GlyT1 inhibitors in human hematopoietic stem cells with an EPP phenotype, lentiviral vectors expressing shRNA of FECH were constructed (Table 4) and transduced at 25 MOI into human cord blood-CD34+ cells purchased from Stemexpress.
Transduced CD34+ cells were differentiated in the presence of Bitopertin (100 nM) or DMSO control into erythroid cells for 9 days in StemSpan SFEM II media supplemented with StemSpan Erythroid Expansion Supplement. The erythroid cell antigen profile was analyzed using cytofluorimetric strategy with the following surface markers: CD71 (PE Mouse Anti-Human CD71, BD Biosciences), glycophoryin A (APC Mouse Anti-Human CD235a, BD Biosciences).

SMILES: C[C@H](Oc1ccc(S(C)(=O)=O)cc1C(=O)N1CCN(c2ncc(C(F)(F)F)cc2F)CC1)C(F)(F)F [Bitopertin, [4-(3-fluoro-5-trifluoromethylpyridin-2-yl)piperazin-1-yl][5-methylsulfonyl-2-[((S)-2,2,2-trifluoro-1-methylethyl)oxy]phenyl]methanone]
- effect on cell viability (K562 clone-9 cells): no negative effects
- effect on Heme formation (clone 1-9 cells): minimal effect
- effect on erythroid cell surface markers (CD71, glycophorin A) [1]: no negative effects
